Columns and labels:
Type in all cases: cell-based, mouse
[1] = system: SERCA2a activity ([Ca2+]cyto decline); assay: Cytoplasmic Ca2+ transient decay (Fura-2 AM) in SAN cells
Procedure: (§1) SAN cells were placed in Tyrode's solution at 36±0.5° C. and were identified by their characteristic morphology (spindle or spider shape) and spontaneous activity. SAN cells were identified electrophysiologically by spontaneous action potentials with a slow depolarizing phase 4 and the hyperpolarization-activated current (If).^27 Spontaneous action potentials, If and ICa were recorded using the perforated (amphotericin B or β-escin in studies requiring dialysis of Ru360 and/or ATP) patch-clamp technique^28 on single SAN cells at 36±0.5° C. in Tyrode's solution. Intracellular Ca^2+ transients were recorded from single SAN cells using Fura-2 AM excited at 340 nm and 380 nm and emitted and 510 nm. Endogenous NADH from single SAN cells was measured by excitation at 350 nm and recording emitted light at 460 nm.^29 Mitochondrial Ca^2+ was measured at 535 nm from mt-pericam expressing SAN cells exited at 415 nm^20. Mitochondrial Ca^2+ entry was measured in cell membrane permeabilized cardiomyocytes isolated from DN-MCU transgenic, wild type mice and from HEK293 cells using Calcium green-5N^30.
Cytosolic Ca^2+ levels were recorded from Fura-2-loaded cells, excited at wavelengths of 340 and 380 nm, and imaged with a 510 nm long-pass filter. Single isolated SAN cells were loaded with 0.1 μM Fura-2 AM for 20 minutes, and then perfused for 20 minutes to de-esterfy the Fura-2 AM in normal Tyrode's solution. After placement on a recording chamber, the cells were perfused in normal Tyrode's solution at 36° C.±0.5. Spindle-shaped, spontaneously beating cells were chosen for experiments. Action potential recording was performed simultaneously.

[2] = system: sinoatrial nodal (SAN) pacemaker cells; assay: Spontaneous action potential rate of single SAN cells (perforated patch clamp); conditions: for SAN activity response to ISO: SR Ca2+ release eliminated by ryanodine or SERCA2a inhibited by thapsigargin; for SAN cell beating rate at baseline: no ISO (FIG. 10a)
Procedure: as §1
Isolation of single SAN cells from mice was performed according to previously published methods^22, 27, 31 with minor modifications. Mice were administered an intraperitoneal injection of avertin (20 μl/g) and monitored until unresponsive. The heart was excised and placed into Tyrode's solution (35° C.), consisting of (mM) 140 NaCl, 5.0 HEPES, 5.5 Glucose, 5.4 KCl, 1.8 CaCl2, and 1.0 MgCl2. The pH was adjusted to 7.4 with NaOH. […] The SAN was cut into smaller pieces, which were transferred and rinsed in a solution containing (mM) 140 NaCl, 5.0 HEPES, 5.5 Glucose, 5.4 KCl, 0.2 CaCl2, 0.5 MgCl2, 1.2 KH2PO4, 50 Taurine and 1 mg/ml bovine serum albumin (BSA), with pH adjusted to 7.4 using NaOH. SAN tissue pieces were digested in 5 ml of solution containing collagenase type I, elastase (Worthington), and protease type XIV (Sigma) for 20-30 min. The tissue was transferred to 10 ml of Kraft-Bruhe (KB) medium containing (mM) 100 potassium glutamate, 5.0 HEPES, 20 Glucose, 25 KCl, 10 potassium aspartate, 2.0 MgSO4, 10 KH2PO4, 20 taurine, 5 creatine, 0.5 EGTA, and 1 mg/ml BSA, with pH adjusted to 7.2 using KOH. The tissue was agitated using a glass pipette for 10 min. The cells were stored at 4° C. and studied within 7 hours.
SAN cells were placed in Tyrode's solution at 36±0.5° C. SAN cells were identified by their characteristic morphology (spindle or spider shape) and spontaneous activity in all single cell experiments. SAN cells were also identified electrophysiologically by typical spontaneous action potentials with slow depolarizing phase 4 and the hyperpolarization-activated current (If) in electrophysiological experiments.
Spontaneous action potentials (APs) and If were recorded using the perforated (amphotericin B or β-escin) patch-clamp technique^28 on single SAN cell at 36±0.5° C. in Tyrode's solution (0.5 mM BaCl2 was added to the bath solution when recording If^32). The pipette was filled with (mM) 130 potassium aspartate, 10 NaCl, 10 HEPES, 0.04 CaCl2, amphotericin B 240 μg/ml with pH adjusted to 7.2 with KOH. SAN cells with stable APs lasting at least 5 min were included in the experiments. β-escin 25 μM was substituted for amphotericin B to allow dialysis of Ru360 or ATP. When recording If, membrane potential was held at −35 mV, the voltage steps were applied for 5 s ranging from −125 mV to −45 mV in 10 mV increments or vice versa.^33 ICa was measured using the perforated patch technique at […] as previously described.^22 ICa was confirmed by its sensitivity to Nifedipine 5 μM. Depolarizing voltage pulses (300 ms in duration) to various potentials (−60 mV to 60 mV in 10 mV step) were applied after 50 ms at −40 mV to inactivate INa from a holding potential of −70 mV. […]

[3] = system: mitochondrial Ca2+ concentration ([Ca2+]mito); assay: Mitochondrial Ca2+ measurement with mt-pericam in cultured SAN cells; conditions: ISO 100 nM
Procedure: as §1
Freshly isolated mouse SAN tissue was cut into small pieces and put into 35 mm tissue culture plates with DMEM. […] Expression of the recombinant ratio-5mt-pericam and DN-MCU in SAN cells was detected by GFP fluorescence. […]

NADH = NADH autofluorescence in SAN cells; conditions: ISO 100 nM
Procedure: as §1
The autofluorescence of endogenous NADH, which derives primarily from mitochondria,^29,35 was measured as described^29. NADH was excited at 350 nm (AT350/SOX, Chroma) and fluorescence was recorded at 460 nm (ET460/50m and T400LP, Chroma). […]

[4] = ATP dialysis, SAN cells from mice expressing phospholamban N27A

Nc1ncnc2c1ncn2[C@@H]1O[C@H](COP(=O)(O)OP(=O)(O)OP(=O)(O)O)[C@@H](O)[C@H]1O [ATP]
Rate of [Ca2+]cyto decline after ISO with Ru360 and ATP co-dialysis ([1]; ATP 4 mM co-dialysis with Ru360, relative to ISO-stimulated values without Ru360): restored | Rate of [Ca2+]cyto decline in N27A SAN cells [1, 4]: did not significantly increase | SAN cell rate response to ISO, ATP dialysis 8 mM ([2]; ATP dialysis 8 mM): does not enhance | SAN rate responses to ISO, ATP dialysis alone ([2]; ATP dialysis without Ru360): had no affect | SAN action potential frequency in N27A SAN cells [2, 4]: did not significantly increase | Inhibitory effect of Ru360 on SAN cell action potential frequency responses to ISO, with ATP co-dialysis ([2]; co-dialysis with ATP 4 mM and Ru360): reversed | DN-MCU dependent loss of the ISO rate response, with ATP co-dialysis ([2]; cultured SAN cells expressing DN-MCU, ATP co-dialysis): rescued | Basal SAN cell rates ([2]; dialysis, no ISO): neither Ru360 nor ATP had any affect

CC(C)NCC(O)c1ccc(O)c(O)c1 (stereo not shown) [ISO, isoproterenol]
[Ca2+]mito [3]: caused an increase | Rate of decline in [Ca2+]cyto ([1]; ISO vs control bath solution): significantly increased | NADH fluorescence (NADH): increased | Rate of action potential initiation ([2]; ISO, concentration-dependent): increased

C/C=C(/C)C(=O)O[C@H]1C(C)=C2[C@H]([C@@H]1OC(=O)CCCCCCC)[C@@](C)(OC(C)=O)C[C@H](OC(=O)CCC)[C@@]1(O)[C@H]2OC(=O)[C@@]1(C)O [thapsigargin]
SAN activity response to ISO [2]: significantly reduced | SAN cell beating rate at baseline [2]: reduce

ryanodine
SAN activity response to ISO [2]: significantly reduced | SAN cell beating rate at baseline [2]: reduce

From patent publication US20160095837A1, “MODULATION OF MITOCHONDRIAL CALCIUM UNIPORTER ACTIVITY FOR TREATING AND PREVENTING ARRHYTHMIAS” (priority 2014, published 2016)
